Laboratory results published in patent publication US7439253B2, “Heterocyclic compounds, their preparation and their use as medicaments, in particular as antibacterials and beta-lactamase inhibitors” (Novexel, priority 2002, dated 2008).
Where a name gives a salt, the structure may show the parent alone. Read-outs that look alike come from different tables or passages of the source.

What was measured:
β-lactamase TEM1 = target: T1, β-lactamase TEM1 (Escherichia coli, UniProt P62593); assay: β-lactamase inhibiting activity (Nitrocefin hydrolysis); format: biochemical, E. coli 250HT21
T1 construct: The β-lactamases are isolated from bacterial strains resistant to penicillins and to cephalosporins; endogenous in cells; host or cells: E. coli 250HT21 (soluble fraction of French-press lysate, 100 000 G supernatant)
T1 sequence (P62593 24-286 limits assumed): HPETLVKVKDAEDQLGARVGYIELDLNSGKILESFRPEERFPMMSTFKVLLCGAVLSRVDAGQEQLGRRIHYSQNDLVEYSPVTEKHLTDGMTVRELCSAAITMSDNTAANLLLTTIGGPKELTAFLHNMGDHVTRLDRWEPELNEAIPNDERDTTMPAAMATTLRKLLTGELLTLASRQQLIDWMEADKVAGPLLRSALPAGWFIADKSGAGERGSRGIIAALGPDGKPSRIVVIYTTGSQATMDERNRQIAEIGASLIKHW
Protocol: (§1) A. Preparation of the β-lactamases Tem˜1 and P99
(§2) The β-lactamases are isolated from bacterial strains resistant to penicillins and to cephalosporins (Tem1 and P99 are produced by E. coli 250HT21 and E. Cloacae 293HT6, respectively).
(§3) The bacteria are cultured in heart-brain broth at 37 g/l (DIFCO), at 37° C. They are harvested at the end of the exponential phase, cooled and centrifuged. The bacterial pellets are taken up in 50 mM sodium phosphate buffer pH 7.0 and again centrifuged. The bacteria are taken up in two volumes of this same buffer and lyzed by means of a French-Press kept at 4° C. After centrifugation for 1 h at 100 000 G, at 4° C., the supernatants containing the soluble fraction of the bacterial extracts are recovered and frozen at −80° C.
(§4) B. Determination of the β-lactamase Activity
(§5) The method uses, as substrate, Nitrocefin (OXOID), a chromogenic cephalosporin, whose product of hydrolysis by Beta-lactamases is red and absorbs at 485 nm. The β-lactamase activity is kinetically determined by measuring the variation in absorbance at 485 nm resulting from the hydrolysis of the substrate on a plate spectrophotometer (Spectra Max Plus from Molecular Devices). The experiments are performed at 37° C. The quantity of enzyme was normalized and the measurements are performed at the initial speed.
(§6) C. Determination of the β-lactamase Inhibiting Activity
(§7) Two measurements are carried out, without preincubation and with preincubation of the enzyme and of the inhibitor (5 min), in order to test the irreversibility of the reaction. The products are tested at 6 or 8 concentrations in duplicate. The reaction mixture contains 100 μM of Nitrocefin and 50 mM sodium phosphate buffer pH 7.0. D. Calculations of the IC50 Values
(§8) The rates of hydrolysis are measured with and without inhibitor. The concentration of inhibitor which inhibits by 50% the reaction of hydrolysis of Nitrocefin by the enzyme (IC50) is determined. The data processing is carried out with the aid of the GraFit software (Erathycus Software).

β-lactamase P99 = target: T2, β-lactamase P99 (Enterobacter cloacae, UniProt P05364); assay: biochemical; format: biochemical; details: 100 μM Nitrocefin, 50 mM sodium phosphate buffer pH 7.0, 37° C.
T2 construct: The β-lactamases are isolated from bacterial strains resistant to penicillins and to cephalosporins; endogenous in cells; host or cells: E. cloacae 293HT6 (soluble fraction of French-press lysate, 100 000 G supernatant)
T2 sequence (P05364 21-381): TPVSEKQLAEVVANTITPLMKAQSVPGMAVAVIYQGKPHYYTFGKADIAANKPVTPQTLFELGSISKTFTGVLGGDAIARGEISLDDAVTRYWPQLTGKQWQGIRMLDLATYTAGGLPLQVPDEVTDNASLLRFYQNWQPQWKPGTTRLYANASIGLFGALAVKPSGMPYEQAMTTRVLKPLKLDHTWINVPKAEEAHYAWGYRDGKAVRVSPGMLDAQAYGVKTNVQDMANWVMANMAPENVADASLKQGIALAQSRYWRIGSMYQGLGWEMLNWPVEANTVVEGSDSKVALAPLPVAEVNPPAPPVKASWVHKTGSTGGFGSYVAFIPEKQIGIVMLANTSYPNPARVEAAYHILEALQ
Protocol: as §1, §2, §3, §4, §5, §6, §7, §8

[1] = 100 μM Nitrocefin, 50 mM sodium phosphate buffer pH 7.0, 37° C., read-out: IC50 nM/TEM1

For `COC(=O)C1c2nn(C(N)=O)cc2C2CN1C(=O)N2OS(=O)(=O)O` (stereo not drawn) [Example 11, Pyridinium Salt of Methyl Trans-2-(aminocarbonyl)-2,5,6,8-tetrahydro-6-oxo-5-(sulfoxy)-4H-4,7-methanopyrazolo[3,4-e][1,3]diazepine-8-carboxylate], the IC50 (β-lactamase TEM1) was 11 nM and the IC50 (β-lactamase P99) was 39 nM.

`COC(=O)[C@@H]1c2nn(Cc3ccccc3)cc2[C@H]2CN1C(=O)N2OS(=O)(=O)O` (relative stereo) [Example 1, triethylammonium salt of methyl trans-2,5,6,8-tetrahydro-6-oxo-2-(phenylmethyl)-5-(sulfoxy)-4H-4,7-methanopyrazolo[3,4-e][1,3]diazepine-8-carboxylate] gave an IC50 (β-lactamase TEM1; [1]) of 3 nM and an IC50 (β-lactamase P99) of 5 nM.

Compound `COC(=O)[C@@H]1c2nn(CC(=O)O)cc2[C@H]2CN1C(=O)N2OS(=O)(=O)O` (relative stereo) [Example 9, Di(triethylammonium) Salt of Trans-5,6-dihydro-8-(methoxycarbonyl)-6-oxo-5-sulfoxy-4H-4,7-methanopyrazolo[3,4-e][1,3]diazepine-2(8H)-acetic acid] has an IC50 (β-lactamase TEM1; [1]) of 60 nM and an IC50 (β-lactamase P99) of 50 nM.

With `NC(=O)[C@H]1c2ccc(OCCOS(=O)(=O)O)cc2[C@@H]2CN1C(=O)N2OS(=O)(=O)O` (relative stereo) [Example 41, Disodium Salt of trans-1,2,3,5-tetrahydro-3-oxo-2-(sulfoxy)-8-[2-(sulfoxy)ethoxy]-1,4-methano-4H-2,4-benzodiazepine-5-carboxamide] the IC50 (β-lactamase TEM1; [1]) was 9 nM and the IC50 (β-lactamase P99) was 29 nM.

For `COC(=O)C1c2c(cnn2CCc2ccccc2)C2CN1C(=O)N2OS(=O)(=O)O` (stereo not drawn) [Example 2, Triethylammonium Salt of Methyl trans-4,5,6,8-tetrahydro-6-oxo-1-(phenylethyl)-5-(sulfoxy)-1H-4,7-methanopyrazolo[3,4-e][1,3]diazepine-8-carboxylate], the IC50 (β-lactamase TEM1) was 16 nM and the IC50 (β-lactamase P99) was 20 nM.

`NC(=O)[C@@H]1c2c(cnn2-c2ccccc2)[C@H]2CN1C(=O)N2OS(=O)(=O)O` (relative stereo) [Example 47, Sodium Salt of trans-4,5,6,8-tetrahydro-6-oxo-1-phenyl-5-(sulfoxy)-1H-4,7-methanopyrazolo[3,4-e][1,3]diazepine-8-carboxamide] gave an IC50 (β-lactamase TEM1; [1]) of 12 nM and an IC50 (β-lactamase P99) of 3 nM.

Compound `CCOC(=O)C1c2ccc(OC(=O)Nc3ccccc3)cc2C2CN1C(=O)N2OS(=O)(=O)O` (stereo not drawn) [Example 37, Sodium Salt of Ethyl Trans-1,2,3,5-tetrahydro-3-oxo-8-[[(phenylamino)carbonyl]oxy]-2-(sulfoxy)-1,4-methano-4H-2,4-benzodiazepine-5-carboxylate] has an IC50 (β-lactamase TEM1) of 41 nM and an IC50 (β-lactamase P99) of 21 nM.

In the case of `CCOC(=O)Cn1ncc2c1C(C(=O)OC)N1CC2N(OS(=O)(=O)O)C1=O` (stereo not drawn) [Example 4, Triethylammonium Salt of Ethyl Trans-4,5,6,8-tetrahydro-8-(methoxycarbonyl)-6-oxo-5-(sulfoxy)-1H-4,7-methanopyrazolo[3,4-e][1,3]diazepine-1-acetate], the IC50 (β-lactamase TEM1) is reported as 34 nM and the IC50 (β-lactamase P99) is reported as 7 nM.

`CCOC(=O)Cn1cc2c(n1)[C@@H](C(=O)OC)N1C[C@H]2N(OS(=O)(=O)O)C1=O` (relative stereo) [Example 5, Triethylammonium Salt of Ethyl Trans-5,6-dihydro-8-(methoxycarbonyl)-6-oxo-5-(sulfoxy)-4H-4,7-methanopyrazolo[3,4-e][1,3]diazepine-2(8H)-acetate] showed an IC50 (β-lactamase TEM1; [1]) of 13 nM and an IC50 (β-lactamase P99) of 17 nM.

Compound `CC1(C)OCC(COc2ccc3c(c2)C2CN(C(=O)N2OS(=O)(=O)O)C3C(N)=O)O1` (stereo not drawn) [Example 42, Sodium Salt of trans-8-[(2,2-dimethyl-1,3-dioxolan-4-yl)methoxy]-1,2,3,5-tetrahydro-3-oxo-2-(sulfoxy)-1,4-methano-4H-2,4-benzodiazepine-5-carboxamide] has an IC50 (β-lactamase TEM1) of 15 nM and an IC50 (β-lactamase P99) of 44 nM.

`COC(=O)[C@@H]1c2sc(C(N)=O)cc2[C@H]2CN1C(=O)N2OS(=O)(=O)O` (relative stereo) [Example 21, Sodium Salt of Methyl Trans-2-(aminocarbonyl)-4,5,6,8-tetrahydro-6-oxo-5-(sulfoxy)-4,7-methano-7H-thieno[2,3-e][1,3]diazepine-8-carboxylate] showed an IC50 (β-lactamase TEM1; [1]) of 7 nM and an IC50 (β-lactamase P99) of 69 nM.

`NC(=O)C1c2nn(C(=O)Nc3ccccc3)cc2C2CN1C(=O)N2OS(=O)(=O)O` (centres unmarked) [Example 7, Triethylammonium Salt of 5,6-dihydro-6-oxo-N-2-phenyl-5-(sulfoxy)-4H-4,7-methanopyrazolo[3,4-e][1,3]diazepine-2,8(8H)-dicarboxamide] showed an IC50 (β-lactamase TEM1; [1]) of 1 nM and an IC50 (β-lactamase P99) of 14 nM.

With `Cc1ccccc1-c1cc2c(s1)[C@@H](C(N)=O)N1C[C@H]2N(OS(=O)(=O)O)C1=O` (relative stereo) [Example 24, Sodium Salt of Trans-4,5,6,8-tetrahydro-2-(2-methylphenyl)-6-oxo-5-(sulfoxy)-4,7-methano-7H-thieno[2,3-e][1,3]diazepine-8-carboxamide] the IC50 (β-lactamase TEM1; [1]) was 2 nM and the IC50 (β-lactamase P99) was 10 nM.

`COC(=O)[C@@H]1c2nn(CCc3ccccc3)cc2[C@H]2CN1C(=O)N2OS(=O)(=O)O` (relative stereo) [Example 3, Triethylammonium Salt of Methyl trans-2,5,6,8-tetrahydro-6-oxo-2-(2-phenylethyl)-5-(sulfoxy)-4H-4,7-methanopyrazolo[3,4-e][1,3]diazepine-8-carboxylate] gave an IC50 (β-lactamase TEM1; [1]) of 2 nM and an IC50 (β-lactamase P99) of 11 nM.

In the case of `COC(=O)[C@@H]1c2c(cnn2C(N)=O)[C@@H]2CN1C(=O)N2OS(=O)(=O)O` (relative stereo) [Example 10, Pyridinium Salt of Methyl Trans-1-(aminocarbonyl)-4,5,6,8-tetrahydro-6-oxo-5-(sulfoxy)-1H-4,7-methanopyrazolo[3,4-e][1,3]diazepine-8-carboxylate], the IC50 (β-lactamase TEM1) is reported as 12 nM and the IC50 (β-lactamase P99) is reported as 18 nM.

With `COc1ccc(Cn2ncc3c2CN2CC3N(OS(=O)(=O)O)C2=O)cc1` (centres unmarked) [Example 18, Sodium Salt of 1,4,5,8-tetrahydro-1-[(4-methoxyphenyl)methyl]-5-(sulfoxy)-6H-4,7-methanopyrazolo[3,4-e][1,3]diazepin-6-one] the IC50 (β-lactamase TEM1; [1]) was 5 nM and the IC50 (β-lactamase P99) was 13 nM.

In the case of `NC(=O)[C@@H]1c2sc(-c3ccccc3C(F)(F)F)cc2[C@H]2CN1C(=O)N2OS(=O)(=O)O` (relative stereo) [Example 25, Sodium Salt of Trans-4,5,6,8-tetrahydro-6-oxo-5-(sulfoxy)-2-[2-(trifluoromethyl)phenyl]-4,7-methano-7H-thieno[2,3-e][1,3]diazepine-8-carboxamide], the IC50 (β-lactamase TEM1; [1]) is reported as 2 nM and the IC50 (β-lactamase P99) is reported as 6 nM.

Compound `CCNC(=O)Oc1ccc2c(c1)[C@@H]1CN(C(=O)N1OS(=O)(=O)O)[C@H]2C(=O)OCC` (relative stereo) [Example 38, Sodium Salt of Ethyl Trans-8-[[(ethylamino)carbonyl]oxy]-1,2,3,5-tetrahydro-3-oxo-2-(sulfoxy)-1,4-methano-4H-2,4-benzodiazepine-5-carboxylate] has an IC50 (β-lactamase TEM1; [1]) of 59 nM and an IC50 (β-lactamase P99) of 19 nM.

With `O=C1N2Cc3c(cnn3-c3ccccc3)C(C2)N1OS(=O)(=O)O` (centres unmarked) [Example 46, Sodium Salt of 1,4,5,8-tetrahydro-1-phenyl-5-(sulfoxy)-6H-4,7-methanopyrazolo[3,4-e][1,3]diazepin-6-one] the IC50 (β-lactamase TEM1) was 5 nM and the IC50 (β-lactamase P99) was 80 nM.

`COCCOCOc1ccc2c(c1)[C@@H]1CN(C(=O)N1OS(=O)(=O)O)[C@H]2C(=O)NOC` (relative stereo) [Example 33, Sodium Salt of Trans-1,2,3,5-tetrahydro-N-methoxy-8-[(2-methoxyethoxy)methoxy]-3-oxo-2-(sulfoxy)-1,4-methano-4H-2,4-benzodiazepine-5-carboxamide] showed an IC50 (β-lactamase TEM1; [1]) of 56 nM and an IC50 (β-lactamase P99) of 17 nM.

Compound `CCc1ccccc1-c1cc2c(s1)[C@@H](C(N)=O)N1C[C@H]2N(OS(=O)(=O)O)C1=O` (relative stereo) [Example 26, Sodium Salt of Trans-2-(2-ethylphenyl)-4,5,6,8-tetrahydro-6-oxo-5-(sulfoxy)-4,7-methano-7H-thieno[2,3-e][1,3]diazepine-8-carboxamide] has an IC50 (β-lactamase TEM1; [1]) of 1 nM and an IC50 (β-lactamase P99) of 6 nM.

For `NC(=O)C1c2nn(-c3ccccc3)cc2C2CN1C(=O)N2OS(=O)(=O)O` (stereo not drawn) [Example 45, Sodium Salt of trans-2,5,6,8-tetrahydro-6-oxo-2-phenyl-5-(sulfoxy)-4H-4,7-methanopyrazolo[3,4-e][1,3]diazepine-8-carboxamide], the IC50 (β-lactamase TEM1) was 1 nM and the IC50 (β-lactamase P99) was 12 nM.
